Laboratory results published in EP0701561B1, “DESOXYAZAPHOSPHOLIPID DERIVATIVES HAVING INHIBITING ACTIVITY ON PHOSPHOLIPASE A2” (LABORATORIOS MENARINI S.A., priority 1993, dated 1994).

What follows are compounds tested on carrageenin plantar oedema (assay: Antiinflammatory activity, inhibition of the carrageenin plantar oedema in the rat). Conditions: intravenously, dose 2.5 mg/Kg, paw volume 3 hours after carrageenin.
Assay type: in vivo, male Sprague-Dawley rats
Method: The antiinflammatory action of the compounds of the present invention is determined by a standard test based on the procedure by Winter C.A. et al. (Proc. Soc. Exp. Biol. Med., 111, 544 (1962)). In this test, male Sprague-Dawley rats of 90-110 g are used, which are randomized in groups of 5 animals. The compound under test is administered intravenously in the tail lateral vein. The compound is suspended in Tween 20 (2-3% final concentration) and physiological serum is added to obtain a solution of the desired concentration of the compound, the administered volume being 2.5 ml/kg. Immediately after the injection of the compound, a subplantar injection of 0.1 ml of 1% carrageenin in physiological serum is performed in the right paw of the rat. In each test, a control group is systematically used, which is administered with the vehicle only. The paw inflammation is evaluated by measuring its volume with a water plethysmograph 1, 3 and 6 hours after inducing the inflammation. The determination of the inhibition percentage of the inflammation is calculated by the following formula: % Inhibition = (1 - A/B) x 100 [formula] wherein A is the average of the swelling volume in the group of treated animals and B is the average of the swelling volume in the control group.
For comparison purposes, the inhibition values of indomethacin and ketoprofen are also included as reference. The inhibition value found for Compound A, a structural analogous of the compounds described in the present patent, is also shown.

Compound	% Inhibition (3 hours) [%]
CCCCCCCCCCS(=O)(=O)NC(CCCCCC)COP(=O)(O)OCCOCc1ccccc1 (stereo not shown) [Compound 26, 2-Decanesulfonylaminooctanol-1-phospho-2-benzyloxyethanol]	26

Same assay, conditions: intravenously, dose 5 mg/Kg, paw volume 3 hours after carrageenin

Compound	% Inhibition (3 hours) [%]
(R)-2-Decanesulfonylaminohexanol-1-phospho-2-benzyloxyethanol [Compound 29]	27
CCCCCCCCCCCC(=O)NC(CCCCCC)COP(=O)(O)CCCC (stereo not shown) [Compound 39, 2-Dodecanoylaminooctyl butylphosphonate]	17
COc1ccc2c(c1)c(CC(=O)O)c(C)n2C(=O)c1ccc(Cl)cc1 [Indomethacin, indomethacin, reference compound]	37
CCCCCCCCCCS(=O)(=O)N[C@@H](CCCCCC)COP(=O)(O)OCCOCc1ccccc1 [Compound 28, (S)-2-Decanesulfonylaminooctanol-1-phospho-2-benzyloxyethanol]	19
CCCCCCCCCCS(=O)(=O)NC(CCCCCC)COP(=O)(O)CCCCc1ccccc1 (stereo not shown) [Compound 38, 2-Decanesulfonaminooctyl (4-phenylbutyl)phosphonate]	23
CC(C(=O)O)c1cccc(C(=O)c2ccccc2)c1 (stereo not shown) [Ketoprofen, ketoprofen, reference compound]	37
CCCCCCCCCCS(=O)(=O)NC(CCCCCC)COP(=O)(O)OCCOCc1ccccc1 (stereo not shown) [Compound 26, 2-Decanesulfonylaminooctanol-1-phospho-2-benzyloxyethanol]	37
CCCCCCC(COP(=O)(O)OCCOCc1ccccc1)NS(=O)(=O)CCCc1ccccc1 (stereo not shown) [Compound 32, 2-(3-Phenylpropanesulfonylamino)octanol-1-phospho-2-benzyloxyethanol]	35
(S)-2-Decanesulfonylaminohexanol-1-phospho-2-benzyloxyethanol [Compound 30]	12
CCCCCCCCCCS(=O)(=O)N[C@H](CCCCCC)COP(=O)(O)OCCOCc1ccccc1 [Compound 27, (R)-2-Decanesulfonylaminooctanol-1-phospho-2-benzyloxyethanol]	36

Same assay, conditions: intravenously, dose 10 mg/Kg, paw volume 3 hours after carrageenin

Compound	% Inhibition (3 hours) [%]
CCCCCCCCCCS(=O)(=O)NC(CCCCCC)COP(=O)(O)OCCOCc1ccccc1 (stereo not shown) [Compound 26, 2-Decanesulfonylaminooctanol-1-phospho-2-benzyloxyethanol]	41
CCCCCCCCCCCC(=O)NC(CCCCCC)COP(=O)(O)OCCOCc1ccccc1 (stereo not shown) [Compound A, 2-dodecanoylaminooctanol-1-phospho-2-benzyloxyethanol, reference compound]	14
